Biological target: CB1 (rCB1) (Rattus norvegicus, UniProt P20272)
Experiment: Single-point radioligand displacement screen
Format: binding
Details: for % 1H-CP-55,940 displacement (mean) from single point screen: 10 µM, 1 µM or 300 nM by cell colour (not visible); for rep1_displacement / rep2_displacement / rep3_displacement: Figure 1c source data; for rep1_displacement: replicate 1; for rep2_displacement: replicate 2; for rep3_displacement: replicate 3; for % radioligand displacement [S.D]: single point at 10 µM, three replicates

Chain of CB1 (rCB1) (P20272 whole entry): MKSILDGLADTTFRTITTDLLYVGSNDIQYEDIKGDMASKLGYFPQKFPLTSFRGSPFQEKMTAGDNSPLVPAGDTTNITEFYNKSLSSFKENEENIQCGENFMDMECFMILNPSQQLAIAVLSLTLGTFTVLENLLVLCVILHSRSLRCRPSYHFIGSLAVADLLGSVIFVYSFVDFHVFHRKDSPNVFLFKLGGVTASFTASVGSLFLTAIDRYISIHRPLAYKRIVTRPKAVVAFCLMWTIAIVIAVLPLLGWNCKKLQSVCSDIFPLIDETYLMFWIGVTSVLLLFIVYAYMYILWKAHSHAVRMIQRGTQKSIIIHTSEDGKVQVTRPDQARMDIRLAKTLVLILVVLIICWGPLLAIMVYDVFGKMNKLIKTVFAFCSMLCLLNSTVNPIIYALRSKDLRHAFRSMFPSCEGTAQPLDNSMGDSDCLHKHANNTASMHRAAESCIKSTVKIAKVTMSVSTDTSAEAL

| SMILES | % 1H-CP-55,940 displacement (mean) from single point screen | rep1_displacement | rep2_displacement | rep3_displacement | % radioligand displacement [S.D] |
| --- | --- | --- | --- | --- | --- |
| Cn1nc(Cc2nnc(C(C)(C)Oc3ccc(Cl)cc3)o2)c2ccccc2c1=O [0450_25] | -12.39% | – | – | – | – |
| Cc1c(C(=O)OCC2COc3ccccc3O2)cnn1Cc1ccccc1 (centres unmarked) [compound 32445] | 35.36% | – | – | – | – |
| COc1cc(OC)cc(-c2nc([C@H](OC)c3ccc(Br)cc3)no2)c1 [compound 13596] | 47.56% | 46.1 | 49 | – | – |
| O=C(OCC1CSc2ccccc2O1)c1cc(Oc2ccccc2)ccn1 (centres unmarked) [compound 50267] | 15.53% | – | – | – | – |
| Cc1nc(CC2CC2)oc1-c1nc(Cc2cc(Br)c3c(c2)OCO3)no1 [compound 53217] | 14.33% | – | – | – | – |
| Cc1cc(C(=O)N2CC3(CCC3)C2C2CCOCC2)nn1-c1cccc(C(F)(F)F)c1 (centres unmarked) [10_19] | 82.61% | – | – | – | – |
| Cn1nc(-c2nnc(C(C)(C)Oc3ccc(C#N)cc3)o2)c2ccccc2c1=O [0450_23] | -19.18% | – | – | – | – |
| O=C1CN(C(=O)c2ccc(Cl)c3cccnc23)CN1Cc1ccccc1 [compound 14861] | 15.10% | 15 | 15.3 | 15 | – |
| Cc1cc(C(=O)NC(c2ccccc2)c2ccco2)nn1-c1cccc(F)c1 (centres unmarked) [compound 88684] | 39.72% | – | – | – | – |
| COCCOc1cc(C(=O)N2CCCC(CC3CCOC3)C2)nc2ccccc12 (centres unmarked) [compound 49667] | 4.27% | 10.3 | 4.1 | -1.6 | – |
| Cc1nc(CC2CC2)oc1-c1nc(Cn2c(C(C)C)nc3ccccc32)no1 [7019_26] | 42.67% | – | – | – | – |
| Cc1c(C(=O)OCc2nc3ccccc3o2)cnn1Cc1ccccc1 [compound 8354] | 59.03% | – | – | – | – |
| COCc1nc(-c2nc(Cc3ccc4c(c3)OCO4)no2)c(-c2ccccc2)s1 [7019_29] | 24.10% | – | – | – | – |
| CC(C)c1ncc(Cl)c(C(=O)N2CC(Cc3ccccc3Cl)C2)n1 [compound 56513] | 36.74% | 17.6 | 25.1 | 67.5 | – |
| Cn1nc(-c2nnc(C(C)(C)Oc3ccc(F)cc3)o2)c2ccccc2c1=O [compound 31486] | 32.26% | – | – | – | – |
| N#Cc1cccc(-n2ccc(C(=O)OCC3CSc4ccccc4O3)n2)c1 (centres unmarked) [compound 2666] | 30.46% | – | – | – | – |
| COC(=O)[C@H]1Cc2ccccc2CN1C(=O)c1cc(C)n(-c2cccc(F)c2)n1 [compound 76400] | -1.48% | – | – | – | – |
| O=C(OCc1ncnn1-c1ccccc1)c1csc(Cc2ccccc2F)n1 [compound 67565] | 8.02% | 8 | – | 8 | – |
| CCCCc1nc(C)c(Cc2nc(Cc3ccc4c(c3)OCO4)no2)s1 [7019_27] | 45.01% | – | – | – | – |

| SMILES | % 1H-CP-55,940 displacement (mean) from single point screen | rep1_displacement | rep2_displacement | rep3_displacement | % radioligand displacement [S.D] |
| --- | --- | --- | --- | --- | --- |
| COc1ccc(Cl)c(-c2cc(C(=O)N3CCOC[C@@H]3CC(C)C)on2)c1 [compound 97878] | 33.55% | 62.5 | 14.5 | 23.7 | – |
| O=C1C(=O)N(C23CC4CC(CC(C4)C2)C3)C(=O)N1CC1CCC(C(F)(F)F)CC1 (centres unmarked) [compound 8441] | 47.91% | 51.8 | 42.6 | 49.3 | – |
| CCCC1CN(C(=O)c2cc(Oc3cccc(Br)c3)ccn2)CCO1 (centres unmarked) [compound 83628] | 12.80% | 14 | 14.4 | 10.1 | – |
| Cc1ccccc1-n1c(=O)c2ccccc2n2c(SC[C@H]3CCCO3)nnc12 [compound 97662] | 18.48% | 20.6 | 19.4 | 15.5 | – |
| Cc1cc(C(=O)NC(c2cccs2)C(C)(C)CO)nn1-c1cccc(Cl)c1 (centres unmarked) [compound 78220] | 5.56% | – | – | – | – |
| Cc1cc(C(=O)NC(CCO)Cc2ccccc2)nn1-c1ccc(F)cc1 (centres unmarked) [compound 15032] | -0.53% | – | – | – | – |
| Cn1nc(-c2nnc(C(C)(C)Oc3cccc(Cl)c3)o2)c2ccccc2c1=O [0450_22] | 43.54% | – | – | – | – |
| Cc1c(C(=O)OCC2CSc3ccccc3O2)cnn1-c1ccccc1 (centres unmarked) [compound 3189] | 46.85% | – | – | – | – |
| O=C(OCc1ccc(Cl)cc1-n1cncn1)c1ccnc(OC2CCC2)c1 [compound 91451] | 17.98% | 15.6 | 20.4 | – | – |
| O=C(OCC1CSc2ccccc2O1)c1ccc(Cn2cccc2)cc1 (centres unmarked) [compound 30177] | 18.40% | – | – | – | – |
| N#Cc1cccc(OCc2ccoc2C(=O)OCC2CSc3ccccc3O2)c1 (centres unmarked) [compound 35424] | 60.22% | – | – | – | – |
| Cc1c(C(=O)OCC2CN(c3ccccc3)C(=O)O2)cnn1Cc1ccccc1 (centres unmarked) [compound 5081] | 31.79% | – | – | – | – |
| CC(C)n1nc(-c2nnc(C(C)(C)Oc3ccc(Cl)cc3)o2)c2ccccc2c1=O [compound 41360] | 41.24% | – | – | – | – |
| COC(=O)C(NC(=O)c1csc(Cc2ccccc2)n1)c1cccs1 (centres unmarked) [compound 61815] | 32.97% | – | – | – | – |
| CCOc1cncc(NC(=O)c2cc(C)n(-c3cccc(Cl)c3)n2)n1 [compound 88160] | -5.87% | – | – | – | – |
| COC(=O)C(OC(=O)c1cc(C)n(-c2ccc(F)cc2)n1)c1ccccc1 (centres unmarked) [compound 62406] | -3.66% | – | – | – | – |
| Cc1ccn2cc(C(=O)N3CCc4c(F)cc(Br)cc4C3)nc2c1 [compound 35971] | 13.78% | 9.7 | 11.6 | 20 | – |
| CCc1nc(C(=O)NC(c2ccccc2)c2cccnc2)nn1-c1ccccc1Cl (centres unmarked) [compound 00051] | 16.02% | 20.4 | 19.7 | 7.9 | – |
| Cc1onc(-c2ccccc2)c1C(=O)OCc1cn2cc(Cl)ccc2n1 [compound 74872] | 49.60% | 51.6 | 49.2 | 48 | – |

| SMILES | % 1H-CP-55,940 displacement (mean) from single point screen | rep1_displacement | rep2_displacement | rep3_displacement | % radioligand displacement [S.D] |
| --- | --- | --- | --- | --- | --- |
| Cc1c(C(=O)OCC2CSc3ccccc3O2)cnn1Cc1ccc2ccccc2c1 (centres unmarked) [7800_24] | 50.03% | – | – | – | – |
| O=C(OCC1CSc2ccccc2O1)c1cn(Cc2cccc(F)c2)nn1 (centres unmarked) [compound 23346] | 25.27% | – | – | – | – |
| COc1ccc(Cc2noc(-c3oc(CC4CC4)nc3C)n2)cc1 [compound 8861] | 15.76% | – | – | – | – |
| O=C(OCc1nc2ccccc2s1)c1c2c(nc3ccccc13)CCC2 [compound 47700] | 27.24% | 29.5 | 33.4 | 18.9 | – |
| O=c1c2cnn(-c3ccccc3)c2nnn1Cc1cc(Cl)ccc1Cl [compound 59552] | 38.03% | 36.6 | 38.4 | 39.1 | – |
| O=C1CN(C(=O)c2cc3cc(Br)ccc3o2)CN1Cc1ccccc1 [compound 46675] | 22.64% | 22.6 | – | – | – |
| O=C(OCC1CSc2ccccc2O1)c1cnn(Cc2ccccc2)c1Br (centres unmarked) [7800_27] | 70.31% | – | – | – | – |
| Cc1nc(CC2CC2)oc1-c1nc(Cc2ccc3c(c2)OCCCO3)no1 [7019_1] | 6.40% | – | – | – | – |
| COC(=O)[C@@H]1[C@@H]2CCC[C@@H]2CN1C(=O)c1nn(-c2cccc(C(F)(F)F)c2)c2c1CCC2 [10_17] | 98.24% | – | – | – | – |
| O=C(NCC1CSc2ccccc2O1)c1ncc(Cc2ccccc2)o1 (centres unmarked) [compound 5752] | 24.02% | – | – | – | – |
| COC(=O)C(NC(=O)c1coc(C2CCOCC2)n1)c1cccs1 (centres unmarked) [compound 19213] | 1.83% | – | – | – | – |
| COc1cccc(C2(C)CCN(C(=O)CC34CCCCC3C4(F)F)C2)c1 (centres unmarked) [‘7218] | 52.18% | 43.4 | 33 | 80.2 | 52.2% [24.79] |
| CCOC(=O)C(NC(=O)c1cc(C)n(-c2cccc(F)c2)n1)C1CCOCC1 (centres unmarked) [compound 64854] | -2.51% | – | – | – | – |
| O=c1ccc(-c2nc(C(F)(F)c3ccc(F)cc3)no2)nn1-c1ccc(F)cc1 [‘2443] | 51.06% | 53.4 | 54.3 | 45.5 | 51.1% [4.87] |
| CC1C(C(F)(F)F)CCN1C(=O)c1csc(N(C)c2ccccc2)n1 (centres unmarked) [compound 27005] | 32.20% | 31.7 | 30.7 | 34.2 | – |
| Fc1ccc(C(F)(F)c2noc(-c3cnnn3-c3cccc(F)c3)n2)cc1 [compound 9217] | 46.71% | 49.7 | 46.4 | 44.1 | – |
| Cc1cc(C(=O)NC(c2cccnc2)C2CC2)nn1-c1cccc(C#N)c1 (centres unmarked) [compound 74836] | 33.29% | 34.5 | 34.8 | 30.5 | – |
| COC1CCn2cc(C(=O)NCC(Cc3ccccc3)c3ccccc3)nc2C1 (centres unmarked) [compound 96198] | 18.71% | 19.2 | 20.5 | 16.4 | – |
